# Measured values reported in patent publication US20260199363A1, “METHOD OF TREATING CANCER IN A PATIENT WITH HEPATIC DYSFUNCTION” (priority 2023, published 2026).
# Like-named read-outs stand apart in the source and are kept apart here.
# Key:
# [1] = Study PKH-95032-008: Phase 1, open-label, single-dose pharmacokinetics, safety and tolerability in moderate hepatic impairment vs matched normal hepatic function; assay type: in vivo, human; conditions: for Tmax: median (minimum, maximum); for Cmax, u: unbound; for half-life / fraction unbound: arithmetic mean±StD; for fraction unbound: read-out: Fu, ave; for AUC0-t, Ratio (%) of Geometric Means (Test/Reference) / Cmax, Ratio (%) of Geometric Means (Test/Reference): moderate hepatic impairment (Test) / normal hepatic function
# [2] = in vivo
# [3] = Study AG881-C-004 (INDIGO): hepatic enzyme elevation adverse events and dose modifications; assay type: in vivo, human; conditions: for TEAEs leading to death, number of subjects / Treatment-related TEAEs leading to death, number of subjects: 40 mg QD, hepatic enzymes elevation SMQ
# Source text: For Study AG881-C-004, the inclusion criteria specified that subjects with adequate hepatic (serum total bilirubin ≤1.5× upper limit of normal (ULN); and aspartate aminotransferase [AST] or alanine aminotransferase [ALT] at or below ULN; and AP≤2.5×ULN) were eligible for enrollment.
# In the INDIGO clinical trial (Study AG881-C-004), 18.6% (31/167) of patients treated with Vorasidenib experienced ALT elevations ≥3 times the ULN and 8.4% (14/167) experienced AST elevations >3 times the ULN. Among these patients, 1.2% (2/167) had concurrent ALT or AST elevations >3 times the ULN and total bilirubin ≥2 times the ULN.
# Similarly, more subjects in the vorasidenib arm experienced treatment-related TEAEs than the placebo arm (65 [38.9%] vs. 26 [16.0%] subjects, respectively).
# Table 4. Overall Summary of Treatment-Emergent Adverse Events from SMQ (Broad Search) of Hepatic Enzymes Elevation Liver-Related Investigations, Signs and Symptoms—Glioma with Vorasidenib 40 mg QD
# Most of the TEAEs were managed within the clinical trial protocol, and discontinuations due to elevated liver enzyme effects were rare (5 subjects, 3%). The median time to resolution (TTR) for the most common (occurred in ≥2 subjects) Grade ≥3 TEAEs in subjects in the vorasidenib arm are as follows:
# The exposure-efficacy analysis used the area under the curve (AUCeot) at steady state based on the actual average dose across the treatment duration until EOT.
# For the 14 subjects with dose reductions due to hepatotoxicity AE, a swimming plot showing time on study by individual subject is provided in the Figure. The plot includes details regarding timing and duration of TEAEs leading to dose reduction, timing and duration of reduced dose, as well as disease response by Blinded Independent Central Review (BIRC) at each assessment timepoint.
# [4] = test system: glioma; assay: Study AG881-C-004 (INDIGO): clinical response per BIRC and exposure-efficacy analysis; assay type: in vivo, human
# Source text: Exposure-efficacy analyses included clinical response to treatment, i.e., PFS, TTNI, OR (CR+PR+mR), CR+PR, all defined per blind independent review committee (BIRC). […] The exposure metrics were pop PK model predicted individual exposures by using post-hoc individual PK parameters and were based on the actual average dose across the treatment duration. The dose of vorasidenib used in the simulations is corrected for dose-reductions and interruptions occurring during the treatment in real life. […] The exposure-efficacy analysis used the area under the curve (AUCeot) at steady state based on the actual average dose across the treatment duration until EOT. […] For the 14 subjects with dose reductions due to hepatotoxicity AE, a swimming plot showing time on study by individual subject is provided in the Figure. The plot includes details regarding timing and duration of TEAEs leading to dose reduction, timing and duration of reduced dose, as well as disease response by Blinded Independent Central Review (BIRC) at each assessment timepoint.
# [5] = Vorasidenib plasma pharmacokinetics across doses (steady-state exposure, dose proportionality); assay type: in vivo, human
# Experimental: At the therapeutic dose of 40 mg QD (Formulation 2), the PopPK model predicted geometric mean AUC,ss and Cmax,ss were 3 times lower than corresponding exposure metrics at 300 mg QD (Formulation 1).
# [6] = Group A normal hepatic function, 20 mg single dose
# [7] = Group B moderate hepatic impairment, 20 mg single dose
# [8] = human, plasma, 20 mg, Group A normal hepatic function, 20 mg single dose
# [9] = human, plasma, 20 mg, Group B moderate hepatic impairment, 20 mg single dose
# [10] = 4 subjects further reduced from 20 mg QD to 10 mg QD
# [11] = 10 subjects reduced from 40 mg QD to 20 mg QD only
# [12] = 167 subjects with glioma, only PR
# [13] = 167 subjects with glioma, only PR and MR
smiles,measurement,setting,value
"C[C@@H](Nc1nc(N[C@H](C)C(F)(F)F)nc(-c2cccc(Cl)n2)n1)C(F)(F)F [vorasidenib, 6-(6-chloropyridin-2-yl)-N^2,N^4-bis((R)-1,1,1-trifluoropropan-2-yl)-1,3,5-triazine-2,4-diamine]","AUC0-t and Cmax, normal hepatic function vs moderate hepatic impairment",[1]; 20 mg single dose,similar
same,unbound AUC0-t higher in moderate hepatic impairment compared to normal hepatic function,[1]; 20 mg single dose,23%
same,"unbound plasma protein fraction, both groups compared",[1]; 20 mg single dose,similar
same,Tmax,[1]; [6],"3.000 (0.500, 4.00) (10) h"
same,"Cmax, u",[1]; [6],0.8135 (41.7) (10) ng/mL
same,Tmax,[1]; [7],"2.000 (1.00, 3.00) (9) h"
same,"Cmax, u",[1]; [7],1.104 (54.2) (9) ng/mL
same,half-life,[1]; [8],443 ± 349 h
same,fraction unbound,[1]; [8],0.0223 ± 0.00245
same,AUC(0-t),"[1]; human, plasma, 20 mg, Group A normal hepatic function, 20 mg single dose, geometric mean (geometric CV %), read-out: AUC0-t",1440 ng·h/mL
same,Cmax,"[1]; human, plasma, 20 mg, Group A normal hepatic function, 20 mg single dose, geometric mean (geometric CV %), read-out: Cmax",36.5 ng/mL
same,Tmax,"[1]; human, plasma, 20 mg, Group A normal hepatic function, 20 mg single dose, read-out: Tmax",~3 h
same,AUC(0-t),"[1]; human, plasma, 20 mg, Group A normal hepatic function, total plasma, 20 mg, read-out: AUC0-t, Geometric Mean (linear mixed effects model)",1390 ng·h/mL
same,Cmax,"[1]; human, plasma, 20 mg, Group A normal hepatic function, total plasma, 20 mg, read-out: Cmax, Geometric Mean (linear mixed effects model)",38.2 ng/mL
same,half-life,[1]; [9],360 ± 189 h
same,fraction unbound,[1]; [9],0.0289 ± 0.00354
same,AUC(0-t),"[1]; human, plasma, 20 mg, Group B moderate hepatic impairment, 20 mg single dose, geometric mean (geometric CV %), read-out: AUC0-t",1680 ng·h/mL
same,Cmax,"[1]; human, plasma, 20 mg, Group B moderate hepatic impairment, 20 mg single dose, geometric mean (geometric CV %), read-out: Cmax",38.5 ng/mL
same,Tmax,"[1]; human, plasma, 20 mg, Group B moderate hepatic impairment, 20 mg single dose, read-out: Tmax",~2 h
same,AUC(0-t),"[1]; human, plasma, 20 mg, Group B moderate hepatic impairment, total plasma, 20 mg, read-out: AUC0-t, Geometric Mean (linear mixed effects model)",1750 ng·h/mL
same,Cmax,"[1]; human, plasma, 20 mg, Group B moderate hepatic impairment, total plasma, 20 mg, read-out: Cmax, Geometric Mean (linear mixed effects model)",38.5 ng/mL
same,tolerability of single-dose administration,[1]; in vivo,tolerable
same,"AUC0-t, Ratio (%) of Geometric Means (Test/Reference)",[1]; 20 mg,126%
same,"Cmax, Ratio (%) of Geometric Means (Test/Reference)",[1]; 20 mg,101%
same,"AUC0-t, Ratio (%) of Geometric Means (Test/Reference)","[1]; 20 mg, listed as Vorasidenib",125.97%
same,"Cmax, Ratio (%) of Geometric Means (Test/Reference)","[1]; 20 mg, listed as Vorasidenib",100.66%
same,effect of moderate hepatic impairment (Child-Pugh) on total or free (unbound) exposure,[1]; single oral dose of 20 mg,did not lead to clinically relevant changes
same,"Fecal excretion, total radioactivity recovery in feces",[2],84.7%
same,"TEAEs leading to death, number of subjects","[3]; post-crossover, N = 52",0 subjects
same,"Treatment-related TEAEs leading to death, number of subjects","[3]; post-crossover, N = 52",0 subjects
same,"TEAEs leading to death, number of subjects","[3]; without crossover, N = 167",0 subjects
same,"Treatment-related TEAEs leading to death, number of subjects","[3]; without crossover, N = 167",0 subjects
same,"TEAEs (overall) leading to dose reduction, % of subjects","[3]; human, in vivo",10.8%
same,"TEAEs (overall) leading to dose reduction, number of subjects","[3]; human, in vivo",18 subjects
same,"alanine aminotransferase increased leading to dose reduction, % of subjects","[3]; human, in vivo",7.8%
same,"alanine aminotransferase increased leading to dose reduction, number of subjects","[3]; human, in vivo",13 subjects
same,alanine aminotransferase increased: % with TTR in >60 days,"[3]; human, in vivo",41.9%
same,alanine aminotransferase increased: % with TTR in ≤15 days,"[3]; human, in vivo",9.3%
same,alanine aminotransferase increased: number of subjects with TTR in >60 days,"[3]; human, in vivo",36 subjects
same,alanine aminotransferase increased: number of subjects with TTR in ≤15 days,"[3]; human, in vivo",8 subjects
same,aspartate aminotransferase increased: % with TTR in >60 days,"[3]; human, in vivo",21.4%
same,aspartate aminotransferase increased: % with TTR in ≤15 days,"[3]; human, in vivo",28.6%
same,aspartate aminotransferase increased: number of subjects with TTR in >60 days,"[3]; human, in vivo",15 subjects
same,aspartate aminotransferase increased: number of subjects with TTR in ≤15 days,"[3]; human, in vivo",20 subjects
same,"effect of exposure (AUCavg and Cmax,avg) on ALT, AST, and bilirubin (all grade and Grade ≥2)","[3]; human, in vivo",no statistically significant effect
same,median TTR for aspartate aminotransferase increased (any grade),"[3]; human, in vivo",29.0 days
same,median time to resolution (TTR) for alanine aminotransferase increased (any grade),"[3]; human, in vivo",56.0 days
same,patients with ALT elevations ≥3 times the ULN,"[3]; human, in vivo",18.6%
same,patients with ALT elevations ≥3 times the ULN (number/total),"[3]; human, in vivo",31/167
same,patients with AST elevations >3 times the ULN,"[3]; human, in vivo",8.4%
same,patients with AST elevations >3 times the ULN (number/total),"[3]; human, in vivo",14/167
same,patients with concurrent ALT or AST elevations >3 times the ULN and total bilirubin ≥2 times the ULN,"[3]; human, in vivo",1.2%
same,patients with concurrent ALT or AST elevations >3 times the ULN and total bilirubin ≥2 times the ULN (number/total),"[3]; human, in vivo",2/167
same,subjects requiring a dose reduction from 40 mg QD to 20 mg QD only,"[3]; human, in vivo",10 subjects
same,subjects requiring a second dose reduction from 20 mg QD to 10 mg QD,"[3]; human, in vivo",4 subjects
same,"subjects with at least 1 dose reduction based on the exposure data (any reason), %","[3]; human, in vivo",16.2%
same,"subjects with at least 1 dose reduction based on the exposure data (any reason), number","[3]; human, in vivo",27 subjects
same,course of liver enzyme and bilirubin increases,[3]; in vivo,transient and improved or resolved
same,subjects with best response of SD while receiving 10 mg QD,[4]; [10],Three
same,subjects with response of PD while receiving 10 mg QD,[4]; [10],1 subject
same,subjects with best response of MR by BIRC while receiving 20 mg QD,[4]; [11],1 subject
same,subjects with best response of PD by BIRC while receiving 20 mg QD,[4]; [11],one
same,subjects with best response of SD by BIRC while receiving 20 mg QD,[4]; [11],8 subjects
same,"subjects with intervention (TTNI), %",[4]; 167 subjects with glioma,11.4%
same,"subjects with intervention (TTNI), number",[4]; 167 subjects with glioma,19 subjects
same,"subjects with progression (PFS) per BIRC, %",[4]; 167 subjects with glioma,28.1%
same,"subjects with progression (PFS) per BIRC, number",[4]; 167 subjects with glioma,47 subjects
same,"subjects with CR+PR per BIRC, %",[4]; [12],1.2%
same,"subjects with CR+PR per BIRC, number",[4]; [12],2 subjects
same,"subjects with OR (CR+PR+mR) per BIRC, %",[4]; [13],10.8%
same,"subjects with OR (CR+PR+mR) per BIRC, number",[4]; [13],18 subjects
same,"effect of exposure on efficacy responses (PFS, TTNI, OR and CR+PR)","[4]; studied exposure range, Study AG881-C-004",did not affect efficacy responses
same,dose proportionality of PK,[5]; from 10 to 200 mg,dose proportional
same,time dependence of PK,[5]; in vivo,not time-dependent
